{"source": "patent US20190125745A1", "about": "“TREATMENT AND DIAGNOSIS OF CANCER” (Rgenix, Inc., priority 2014, published 2019)", "key": {"[1]": {"system": "B16F10 parental and DTIC-resistant cells", "experiment": "Tumor growth by DTIC-sensitive and DTIC-resistant B16F10 cells", "type": "in vivo, mouse", "conditions": "chow 100 mg/kg", "experimental": "Dacarbazine-resistant B16F10 mouse melanoma cells were generated by continuously culturing the cells in the presence of DTIC (D2390, Sigma-Aldrich, St. Louis, Mo.). First, the cells were treated with 500 μg/mL DTIC for one week. Following this initial DTIC treatment, the remaining (˜10%) viable cells were allowed to recover for one week, after which 750 μg/mL of DTIC was added to the cell media for 5 days. Subsequent to this high-dose treatment, the cells were allowed to recover in the presence of low-dose DTIC (100 μg/mL) for one week. The cells were then continuously cultured in cell media containing 200 μg/mL DTIC for at least one month prior to grafting the cells into mice. DTIC was added to fresh cancer cell media every 3 days. For tumor growth experiments, 5×10^4 B16F10 parental and DTIC-resistant cells were subcutaneously injected into the lower flank of 7-week-old C57BL/6 mice."}, "[2]": {"system": "ApoE promoter", "experiment": "ApoE promoter activity assay (luciferase, ME.1/ME.2)", "type": "cell-based, human", "conditions": "1 μM", "from_the_text": "FIG. 11. LXRβ Activation Suppresses Melanoma Invasion and Endothelial Recruitment by Transcriptionally Enhancing Melanoma-Cell ApoE Expression. […] Scale bar, 50 μm.\nThe ApoE promoter, consisting of a sequence spanning 980 base pairs upstream and 93 base pairs downstream of the ApoEgene, was cloned into a pGL3-Basic vector (E1751, Promega Corporation, Madison, Wis.) upstream of the firefly luciferase gene using NheI and SacI restriction enzymes. Then, multi-enhancer elements 1 (ME.1) and 2 (ME.2) were cloned directly upstream of the ApoE promoter using MluI and […] restriction enzymes. To assess ApoE promoter- and ME.1/ME.2-driven transcriptional activation by LXR agonists, 5×10^4 MeWo cells were seeded into a 24-well plate. […] To assess transcriptional activation by LXRα or LXRβ, 5×10^4 MeWo cells expressing a control shRNA or shRNA targeting LXRα or LXRβ were seeded into a 24-well plate. […] After 24 hours, cells were lysed, and cell lysate was analyzed for firefly and renilla luciferase activity using the Dual Luciferase Assay System (E1960, Promega) and a Bio-Tek Synergy NEO Microplate Reader. Firefly luciferase signal was normalized to renilla luciferase signal and all data are expressed relative to the luciferase activity ratio measured in the DMSO-treated control cells."}, "[3]": {"system": "SK-Mel-334.2 primary human melanoma line", "experiment": "Subcutaneous SK-Mel-334.2 tumor growth in immunocompromised mice", "type": "in vivo", "conditions": "oral", "protocol": "FIG. 4. Therapeutic LXR Activation Inhibits Melanoma Tumor Growth. […] Representative tumor images shown correspond to tumors extracted at the final day (d12). n=10-18 (A), 8-10 (B). (C-E) Primary tumor growth by 1×10^6 MeWo (C), […] SK-Mel-334.2 (D), and 2×10^6 SK-Mel-2 (E) human melanoma cells subcutaneously injected into immunocompromised mice. […] Tumor images shown correspond to last day of measurements. n=6-34 (C), 8 (D), 5 (E). (F) 5×10^4 B16F10 cells were injected subcutaneously into C57BL/6-WT mice. Upon tumor growth to 150 mm^3, mice were fed continuously with a control chow or a chow containing GW3965 (150 mg/kg), and tumor growth was measured daily. n=6-13. […] Tumor volume was calculated as (small diameter)^2×(large diameter)/2. […] Scale bars, 5 mm (A-D), 50 μm (J, K), 25 μm (L)."}, "[4]": {"system": "amyloid plaque pathology and memory deficits", "conditions": "oral delivery; cited from earlier work"}, "[5]": {"molecular_target": "T1, LXRβ (Homo sapiens, UniProt P55055)", "T1 sequence (P55055 1-460)": "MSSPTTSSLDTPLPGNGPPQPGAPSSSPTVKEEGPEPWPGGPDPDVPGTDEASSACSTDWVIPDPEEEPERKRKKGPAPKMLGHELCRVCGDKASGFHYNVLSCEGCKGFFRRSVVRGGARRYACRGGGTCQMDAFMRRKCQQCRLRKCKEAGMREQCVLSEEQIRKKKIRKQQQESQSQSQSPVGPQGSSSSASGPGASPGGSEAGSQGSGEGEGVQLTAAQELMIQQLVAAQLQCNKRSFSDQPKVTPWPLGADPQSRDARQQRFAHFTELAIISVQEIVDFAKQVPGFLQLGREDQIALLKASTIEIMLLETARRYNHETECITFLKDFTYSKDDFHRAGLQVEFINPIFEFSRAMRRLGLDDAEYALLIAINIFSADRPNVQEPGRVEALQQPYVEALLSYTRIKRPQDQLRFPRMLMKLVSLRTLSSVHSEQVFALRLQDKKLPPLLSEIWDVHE", "experiment": "ligand sensing assay (LiSA), LXRβ", "type": "biochemical", "conditions": "hydrochloride", "from_the_text": "As used herein, reference to the activity of an LXR agonist at LXRα and LXRβ refer to the activity as measured using the ligand sensing assay (LiSA) described in Spencer et al. Journal of Medicinal Chemistry 2001, 44, 886-897, incorporated herein by reference. […] For example, the methods of the invention can be performed using an LXRβ agonist having activity for LXRβ that is at least 3-fold greater than the activity of the agonist for LXRα, or having activity for LXRβ that is at least 10-fold greater than the activity of the agonist for LXRα, or having activity for LXRβ that is at least 100-fold greater than the activity of said agonist for LXRα, or having activity for LXRβ that is at least within 3-fold of the activity of the agonist for LXRα. The term “greater activity” in the LiSA assay refers to a lower EC50."}, "[6]": {"system": "SK-Mel-239 vemurafenib-resistant clone cells", "conditions": "diet 100 mg/kg"}}, "note": "Structures can show the parent of a compound that is named as a salt."}
{"smiles": "O=C(O)Cc1cccc(OCCCN(Cc2cccc(C(F)(F)F)c2Cl)CC(c2ccccc2)c2ccccc2)c1", "note": "[GW3965 108, 3-[3-[N-(2-Chloro-3-trifluoromethylbenzyl)-(2,2-diphenylethyl)amino]propyloxy] phenylacetic acid hydrochloride]", "values": [{"measurement": "suppression of tumor growth by the DTIC-resistant B16F10 melanoma clone", "setting": "[1]", "result": "more than 70%"}, {"measurement": "ability to upregulate ApoE transcription and protein expression upon melanoma cell depletion of LXRβ, but not LXRα", "setting": "[2]", "result": "abrogated"}, {"measurement": "inhibition of tumor growth, SK-Mel-334.2", "setting": "[3]", "result": 73, "unit": "%"}, {"measurement": "amyloid plaque pathology and memory deficits", "setting": "[4]", "result": "improve amyloid plaque pathology and memory deficits"}, {"measurement": "greater activity for LXRβ compared to LXRα", "setting": "[5]", "result": 6, "unit": "fold"}, {"measurement": "greater activity for LXRβ compared to LXRα", "setting": "[5]; row", "result": "approximately 6 fold"}, {"measurement": "suppression of growth of the SK-Mel-239 vemurafenib-resistant line", "setting": "[6]", "result": 72, "unit": "%"}]}
